Reference: PMC10974272, “Cytotoxic and Antiproliferative Activity of LASSBio-2208 and the Attempts to Determine Its Drug Metabolism and Pharmacokinetics In Vitro Profile” (Pharmaceuticals, 2024)
In brackets after ≈: the same amount, converted by molar mass.

Columns and labels:
Plasma stability = type: in vitro ADME, rat; conditions: for recovery at 10 μM / half-life at 10 μM: rat plasma diluted with phosphate buffer, pH 7.4; for recovery at 10 μM: rat plasma stability assay; for metabolic stability in rat plasma (in words) / half-life at 10 μM / Elimination Rate Constant (k) / Metabolization Rate: rat plasma; for half-life at 10 μM / Elimination Rate Constant (k) / Metabolization Rate: 37 °C, 10 μM; for Metabolization Rate: 0–240 min
Method: Considering that both LASSBio-2208 and LASSBio-1911 have, in their structures, the N-acylhydrazone and hydroxamic acid fragments, both susceptible to metabolic hydrolysis, metabolic stability in plasma was conducted with both compounds.
LASSBio-2208 and LASSBio-1911, in a final concentration of 10 μM from stock solution of 1 mM, was added in 50 μL of rat plasma solution diluted in 250 μL with phosphate buffer (pH 7.4) and was placed in a shaker at 37 °C under vigorous stirring for 0, 30, 60, 120 and 240 min. After each reaction time, 1 mL of cold acetonitrile containing 2 uM internal standard was added to the wells to stop the reaction. The solution was mixed and centrifuged at 24,500× g for 15 min (Universal Centrifuge 320R Hettich). The supernatant (1 mL) was filtrated and placed in vials to be analysed by HPLC.

HDAC8 = conditions: cited from earlier work
[1] = system: T lymphoblast cell line (MOLT-4); assay: MTT cell viability assay, MOLT-4; conditions: Homo sapiens
Method: After the incubation time, the plate was centrifuged (Universal centrifuge 320R Hettich, Kirchlengern, Germany) at 440× g, 10 min and 4 °C, then 110 µL of supernatant was removed and 10 µL of MTT solution was added and left to incubate for 3.5 h in the oven at 37 °C and 5% CO2. […] The CC50 was calculated using the GraphPad Prism 9.0 program. Each sample was tested in triplicate in three independent experiments (N3) [32, 33].

PI3Kα = conditions: cited from earlier work
PI3Kβ = conditions: cited from earlier work
PI3Kδ = conditions: cited from earlier work
PI3Kγ = conditions: cited from earlier work
mTOR = conditions: cited from earlier work
[2] = design: method as in PMID 32022441; conditions: cited from earlier work
[3] = design: method as in PMID 32022441; conditions: cited from earlier work; remark: listed apart in the source
[4] = system: PC3 prostate carcinoma cell line; design: method as in PMID 33919077; conditions: cited from earlier work
[5] = system: PC3 prostate carcinoma cell line; design: method as in PMID 33919077; conditions: PC3, flow cytometry, 24 h assay; cited from earlier work

SMILES | metabolic stability in rat plasma (in words) (Plasma stability) | recovery at 10 μM (Plasma stability) [%] | half-life at 10 μM (Plasma stability) [h] | Elimination Rate Constant (k) (Plasma stability) | Metabolization Rate (Plasma stability) [%] | IC50 (HDAC8) [nM] | CC50 ([1]; MOLT-4, 24 h) [nM] | Emax ([1]; MOLT-4, 24 h) [%] | CC50 ([1]; MOLT-4, 48 h) [nM] | Emax ([1]; MOLT-4, 48 h) [%] | CC50 ([1]; MOLT-4, 72 h) [nM] | Emax ([1]; MOLT-4, 72 h) [%] | other results
CN(C)c1ccc(C(=O)N/N=C/c2ccc(C(=O)NO)cc2)cc1 [LASSBio-1911] | high metabolic stability | 73.4 | 6.42 | 0.0018 | 36.14 | 230 | 13800 | 96.5 | 6150 | 98.9 | 5270 | 99.2 | –
O=C(NO)c1ccc(/C=N/NC(=O)c2cc(N3CCOCC3)nc(-c3cccc(O)c3)n2)cc1 [LASSBio-2208] | high metabolic stability | 75.5 | 14.4 | 0.0008 | 20.61 | 67.6 | 7140 | 84.1 | 8260 | 83.2 | 7150 | 91.2 | IC50 (PI3Kα): 46.3 nM; IC50 (PI3Kβ): 72.8 nM; IC50 (PI3Kδ): 72.4 nM; IC50 (PI3Kγ): 1300 nM; IC50 (mTOR): 464 nM; aqueous solubility (thermodynamic solubility) [2]: 1.81 µM (≈ 0.837 µg/mL); calculated logP [3]: 1.96; reduction of cell viability ([4]; PC3, MTT 24 h, highest concentration studied (5 µM)): ~50%; effect on cell viability ([4]; PC3, MTT 48 h, 0.01–5 µM): no effect on cell viability; cell cycle effect [5]: cell cycle arrest in the G2/M phase; initial cell apoptosis, share of cell population [5]: 60–66%
